Experimental data taken from paper PMC9697519, “New Theonellapeptolides from Indonesian Marine Sponge Theonella swinhoei as Anti-Austerity Agents” (Marine Drugs, 2022).
pIC50: −log10 of the molar value. Like-named read-outs stand apart in the source and are kept apart here. *1 amine or outer side, *2 acyl side, *3 side chain or, on linkers, in order; H or OH if unused. Where a SMILES comes first, the peptide text is derived from it. Bridges are numbered along the chain shown (N, C = ends). [ ]: non-standard residue; d: D form. The star is where a group is joined. dNMeaIle = CC[C@H](C)[C@@H](NC)C(=O)O; d(aIle) = CC[C@H](C)[C@@H](N)C(=O)O; NMeI = CC[C@H](C)[C@H](NC)C(=O)O; NMeβAla = CN(CCC(=O)[*:2])[*:1]; dNMeL = CN[C@H](CC(C)C)C(=O)O; dNMeV = CN[C@@H](C(=O)O)C(C)C; NMeV = CN[C@H](C(=O)O)C(C)C; Methoxyacetyl = COCC(=O)*; NMeA = CN[C@@H](C)C(=O)O; βAla = NCCC(=O)O

Assays:
Escherichia coli JW5503 = test system: Escherichia coli JW5503
Description: (§1) Previously, three theonellapeptolide members capped with a unique acyl group at their N-termini such as methylsulfinylacetyl, methylsulfanylacetyl, and acetyl were isolated by Tsuda et al. from Okinawan marine sponge Theonella sp.. Furthermore, the antibacterial activity of these variants was evaluated against four bacterial and six fungal strains. […] To the best of our knowledge, there is no report on the antibacterial activity of theonellapeptolides with methoxyacetyl group. This encouraged us to investigate the antibacterial activity of 1–6 against the Gram-negative bacterium Escherichia coli JW5503 and the Gram-positive bacteria Bacillus cereus NBRC 15305 and Kocuria rhizophila NBRC 12708.
(§2) After incubation for 22 h (30 °C), the obtained optical density was recorded using Tecan infinite® M200 plate reader at 600 nm to determine percent growth inhibition.

[1] = test system: Kocuria rhizophila NBRC 12708
Description: as §1, §2

[2] = test system: Bacillus cereus NBRC 15305
Description: as §1, §2

[3] = test system: MCF-7 (human breast cancer cells); conditions: 24 h
Description: (§3) Finally, the anti-austerity activity on two other different cancer cell lines was studied. Preferential cytotoxicity was assessed in a nutrient-deprived medium. Esumi et al. hypothesized that tolerance to nutrient deprivation as well as angiogenesis might be an important factor in tumor progression under hypovascular condition.
(§4) Briefly, MIA PaCa-2, HepG2 and MCF-7 Cells (2 × 10^4 cells/well) were seeded in 96-well plates and incubated in fresh DMEM. The cells were washed with Dulbecco’s phosphate-buffered saline (PBS) before the medium was replaced with DMEM or NDM containing serial dilutions of the test samples. After 24 h of incubation, the cells were washed with PBS, and 100 μL of DMEM containing 10% WST-8 cell counting kit solution was added to each well. After 3 h of incubation, the absorbance was measured at 450 nm. Cell viability was calculated from the mean values for three wells. The preferential cytotoxicity was expressed as the concentration at which 50% of cells died preferentially in NDM (PC50).

[4] = test system: HepG2 (human liver cancer cells); conditions: 24 h
Description: as §3, §4

[5] = test system: human pancreatic cancer cell line MIA PaCa-2; conditions: 24 h
Description: Data are presented as preferential cytotoxicity (PC50) values, which represent the concentration that kills 50% of cancer cells in a nutrient-deprived medium (NDM) without any toxicity in a nutrient-rich medium DMEM (Dulbecco’s Modified Eagle Medium).
as §4
Pancreatic cancer cells (MIA PaCa-2 cells) were kindly provided by Dr. Suresh Awale, an Associate Professor at Institute of Natural Medicine, University Toyama, Toyama, Japan. MIA PaCa-2 (RBRC-RCB2094), human pancreatic cancer cell lines were purchased from Riken BRC cell bank.

[6] = Escherichia coli JW5503, 96-well microbroth dilution (CLSI), triplicate, 22 h, 30 °C, OD 600 nm
[7] = Kocuria rhizophila NBRC 12708, 96-well microbroth dilution (CLSI), triplicate, 22 h, 30 °C, OD 600 nm
[8] = Bacillus cereus NBRC 15305, 96-well microbroth dilution (CLSI), triplicate, 22 h, 30 °C, OD 600 nm
[9] = read-out: IC50 in DMEM, MCF7, nutrient-rich DMEM, WST-8, absorbance 450 nm, mean of three wells
[10] = read-out: PC50 in NDM, MCF7, preferential cytotoxicity, nutrient-deprived medium (NDM), WST-8, mean of three wells
[11] = read-out: IC50 in DMEM, HepG2, nutrient-rich DMEM, WST-8, absorbance 450 nm, mean of three wells
[12] = read-out: PC50 in NDM, HepG2, preferential cytotoxicity, nutrient-deprived medium (NDM), WST-8, mean of three wells
[13] = read-out: IC50 in DMEM, MIA PaCa-2, nutrient-rich DMEM, WST-8, absorbance 450 nm, mean of three wells
[14] = read-out: PC50 in NDM, MIA PaCa-2, preferential cytotoxicity, nutrient-deprived medium (NDM), WST-8, mean of three wells

| Structure (SMILES) | MIC, EC (Escherichia coli JW5503; [6]) [µM] | MIC, KR [1, 7] [µM] | MIC, BC [2, 8] [µM] | pIC50 [3, 9] | pIC50 [3, 10] | pIC50 [4, 11] | pIC50 [4, 12] | pIC50 [5, 13] | pIC50 [5, 14] | MIC, EC (Escherichia coli JW5503; JW5503, 22 h) [µM] | MIC, KR ([1]; NBRC 12708, 22 h) [µM] | MIC, BC ([2]; NBRC 15305, 22 h) [µM] |
| --- | --- | --- | --- | --- | --- | --- | --- | --- | --- | --- | --- | --- |
| CC[C@H](C)[C@H]1NC(=O)CCNC(=O)[C@@H](C(C)C)NC(=O)[C@@H](CC(C)C)NC(=O)CCNC(=O)[C@@H](NC(=O)[C@@H](CC(C)C)N(C)C(=O)[C@@H](NC(=O)COC)C(C)C)[C@@H](C)OC(=O)[C@@H]([C@@H](C)CC)N(C)C(=O)[C@@H](CC(C)C)NC(=O)CCNC(=O)[C@H](C)NC(=O)[C@H](C(C)C)N(C)C1=O [Compound 2, theonellapeptolide IIa] (Methoxyacetyl-V[dNMeL]T[βAla][dL][dV][βAla][d(aIle)][NMeV]A[βAla][dL][dNMeaIle]; ester 3-C) | > 66 | > 66 | > 66 | < 4.00 | < 4.00 | < 4.00 | < 4.00 | < 4.00 | 4.48 | – | – | – |
| CC[C@H](C)[C@H]1NC(=O)CCNC(=O)[C@H](C(C)C)N(C)C(=O)[C@@H](CC(C)C)NC(=O)CCN(C)C(=O)[C@@H](NC(=O)[C@@H](CC(C)C)N(C)C(=O)[C@@H](NC(=O)COC)C(C)C)[C@@H](C)OC(=O)[C@@H]([C@@H](C)CC)N(C)C(=O)[C@@H](CC(C)C)NC(=O)CCNC(=O)[C@H](C)NC(=O)[C@H](C(C)C)N(C)C1=O [Compound 3, theonellapeptolide IIc] (Methoxyacetyl-V[dNMeL]T[NMeβAla][dL][NMeV][βAla][d(aIle)][NMeV]A[βAla][dL][dNMeaIle]; ester 3-C) | > 66 | > 66 | > 66 | < 4.00 | < 4.00 | < 4.00 | < 4.00 | 4.14 | 5.00 | – | – | – |
| CC[C@H](C)[C@H]1C(=O)NCCC(=O)N[C@H]([C@@H](C)CC)C(=O)N(C)[C@@H](C(C)C)C(=O)N(C)[C@@H](C)C(=O)NCCC(=O)N[C@H](CC(C)C)C(=O)N(C)[C@H]([C@@H](C)CC)C(=O)O[C@H](C)[C@H](NC(=O)[C@@H](CC(C)C)N(C)C(=O)[C@@H](NC(=O)COC)C(C)C)C(=O)NCCC(=O)N[C@H](CC(C)C)C(=O)N1C [Compound 6, theonellapeptolide Id] (Methoxyacetyl-V[dNMeL]T[βAla][dL][NMeI][βAla][d(aIle)][NMeV][NMeA][βAla][dL][dNMeaIle]; ester 3-C) | – | – | – | < 4.00 | < 4.00 | < 4.00 | < 4.00 | 4.37 | 5.09 | > 66 | > 66 | > 66 |
| CC[C@H](C)[C@H]1NC(=O)CCNC(=O)[C@@H](C(C)C)N(C)C(=O)[C@@H](CC(C)C)NC(=O)CCNC(=O)[C@@H](NC(=O)[C@@H](CC(C)C)N(C)C(=O)[C@@H](NC(=O)COC)C(C)C)[C@@H](C)OC(=O)[C@@H]([C@@H](C)CC)N(C)C(=O)[C@@H](CC(C)C)NC(=O)CCNC(=O)[C@H](C)NC(=O)[C@H](C(C)C)N(C)C1=O [Compound 1, theonellapeptolide IIb] (Methoxyacetyl-V[dNMeL]T[βAla][dL][dNMeV][βAla][d(aIle)][NMeV]A[βAla][dL][dNMeaIle]; ester 3-C) | > 66 | – | – | < 4.00 | < 4.00 | < 4.00 | < 4.00 | < 4.00 | 4.37 | – | > 66 | > 66 |
| CC[C@H](C)[C@H]1C(=O)NCCC(=O)N[C@H]([C@@H](C)CC)C(=O)N(C)[C@@H](C(C)C)C(=O)N[C@@H](C)C(=O)NCCC(=O)N[C@H](CC(C)C)C(=O)N(C)[C@H]([C@@H](C)CC)C(=O)O[C@H](C)[C@H](NC(=O)[C@@H](CC(C)C)N(C)C(=O)[C@@H](NC(=O)COC)C(C)C)C(=O)N(C)CCC(=O)N[C@H](CC(C)C)C(=O)N1C [Compound 5, theonellapeptolide IIe] (Methoxyacetyl-V[dNMeL]T[NMeβAla][dL][NMeI][βAla][d(aIle)][NMeV]A[βAla][dL][dNMeaIle]; ester 3-C) | – | – | – | < 4.00 | < 4.00 | < 4.00 | < 4.00 | 4.39 | 5.46 | > 66 | > 66 | > 66 |
